# Data published in US20050265954A1, “Novel association, a method of its preparation and its uses” (ADAMED, Sp. z.o.o., priority 2004, published 2005).
# Key:
# [1] = Light absorption spectra and complex formation in phosphate buffer; type: physicochemical; conditions: phosphate buffer 0.05M, pH 8.5, chlorin p6 1.9·10^−5M
# Description: The absorption spectra of the above-obtained associations of polyvinylpyrrolidone with chlorin p6 in the phosphate buffer (0.05M, pH 8.5) are shown on FIG. 1 for the following chlorin p6/polyvinylpyrrolidone ratios (by weight): (1) 1:1; (2) 1:15; (3) 1:40; (4) 1:200; and (5) 1:1000. The concentration of chlorin p6 was 1.9·10^−5M in all investigated solutions.
# The chlorin p6-polyvinylpyrrolidone complex has an absorption maximum in the long-wave region of visible light, and this maximum is shifted towards longer wavelengths (664 nm) compared to free chlorin p6, which has an absorption maximum at 656 nm. Therefore, the use of the association according to the invention as a photosensitizer allows for deeper penetration of radiation into biological tissues, which allows for treating solid tumors and/or deeply located lesions.
# Formation of the complex of polyvinylpyrrolidone with chlorin p6 results in a series of changes in the absorption spectrum. […]
# FIG. 2 presents the experimentally obtained percent of red shift of the absorption maximum of the complex in relation to the content of polyvinylpyrrolidone. […] The spectra were recorded for a series of the solutions of the complex in the phosphate buffer (pH 8.5) at the chlorin p6 concentration of 1.9·10^−5M.
# [2] = tested on: Pliss' lymphosarcoma; assay: Tumor necrosis after photodynamic therapy, Pliss' lymphosarcoma; type: in vivo; conditions: rats, photosensitizer 2.5 mg/kg, laser 660 nm, 50 J/cm^2
# Procedure: The studies were performed on white not-inbred laboratory rats having subcutaneously implanted tumors (Pliss' lymphosarcoma). The dose of the administered photosensitizer was 2.5 mg/kg. The necrosis area was estimated based on the functional condition of the tumor's vascular system following laser irradiation (660 nm) at the radiation dose of 50 J/cm^2, when accumulation of the photosensitizer was the highest.
# After 24 hours since the photodynamic therapy, the animals were intravenously given a solution of Evans blue in physiologic saline at the dose of 1.0 ml/100 g of body weight.
# [3] = tested on: Walker-256 carcinosarcoma; assay: Inhibition of neoplasm's growth, Walker-256 carcinosarcoma; type: in vivo, rats; conditions: 2.5 mg/kg intraperitoneally, 200 J/cm^2
# Procedure: The use of the association according to the invention allows to achieve a high level of the tumor growth inhibition. In order to confirm this effect, the studies were performed using white rats with implanted neoplasms (Walker-256 carcinosarcoma). A solution of the photosensitizer was administered intraperitoneally at doses of 2.5 mg/kg and the tumor was […] at the radiation dose of 200 J/cm^2. The observation was continued for 21 days following the therapy. FIG. 3 and Table 7 show the dynamics of changes of the absolute rate of the tumor growth, resulting from the use of the association according to the invention (1:15) as well as free chlorin p6. The control group consisted of untreated animals.
# [4] = reference standard; cited from earlier work
Absorption maximum in the long-wave region of visible light [1] [nm],SMILES,Depth of necrosis [2] [mm],Necrosis area [2] [%],Neoplasm's growth ([3]; 3 days after photodynamic therapy) [%],Neoplasm's growth ([3]; 7 days after photodynamic therapy) [%],Neoplasm's growth ([3]; 10 days after photodynamic therapy) [%],Neoplasm's growth ([3]; 14 days after photodynamic therapy) [%],Neoplasm's growth ([3]; 21 days after photodynamic therapy) [%],Resumption of tumor growth following the therapy ([3]; observation 21 days),Quantum yield of the singlet-state oxygen (φλ) of the reference solution [4]
656,"C=Cc1c(C)c2cc3nc(c(C(=O)O)c4[nH]c(cc5nc(cc1[nH]2)C(C)=C5CC)c(C)c4C(=O)O)[C@@H](CCC(=O)O)[C@@H]3C (relative stereo) [chlorin p6, 13-carboxy-17-[2-carboxyethyl]-15-carboxy-17,18-trans-dihydro-3-vinyl-8-ethyl-2,7,12,18-tetramethylporphyrin]",7,46.3,0,0,3,8,12,the tumor growth resumes after 10 days,–
–,"O=S(=O)([O-])c1ccc(-c2c3nc(c(-c4ccc(S(=O)(=O)[O-])cc4)c4ccc([nH]4)c(-c4ccc(S(=O)(=O)[O-])cc4)c4nc(c(-c5ccc(S(=O)(=O)[O-])cc5)c5ccc2[nH]5)C=C4)C=C3)cc1.[Na+].[Na+].[Na+].[Na+] [TSFP, tetrasodium phenylporphyrintetrasulfonate]",–,–,–,–,–,–,–,–,0.7
